In paper PMC11327220 (Bioscience Reports, 2024):
Where “and” joins values, the source holds several entries; their conditions need not be identical. Identical values can stand only once. Like-named read-outs stand apart in the source and are kept apart here.

Experiments:
[1] = target: T1, SARS-CoV-2 3CLpro (Severe acute respiratory syndrome coronavirus 2, UniProt P0DTD1); experiment: biochemical; assay type: biochemical
[2] = target: 3CLpro (Severe acute respiratory syndrome coronavirus 2, UniProt P0DTD1); assay type: binding, SARS-CoV-2
[3] = target: SARS-CoV-1 3CLpro (Severe acute respiratory syndrome coronavirus, UniProt P0C6X7); experiment: biochemical
[4] = target: T1, SARS-CoV-2 3CLpro; experiment: Inhibition kinetics of luteolin (competitive inhibition fit); assay type: biochemical
[5] = system: SARS-CoV-2 (ancestral strain A2.2); experiment: microbe, parasite or virus in culture; assay type: cell-based; conditions: Severe acute respiratory syndrome coronavirus 2, HEK-293T, read-out: IC50 in the live virus assay
[6] = target: MERS 3CLpro (Middle East respiratory syndrome-related coronavirus, UniProt K9N7C7); experiment: biochemical
[7] = read-out: IC50 of micronutrients against 3CLpro
[8] = additive in the absence of luteolin
[9] = one additive: 100 µM luteolin, 3.5 mM magnesium, 2.3 mM manganese, 0.3 mM zinc or 0.3 mM vitamin C, free enzyme 133 ± 4
[10] = 2.3 mM manganese, 3.5 mM magnesium or 0.3 mM vitamin C, no luteolin
[11] = 0.3 mM vitamin C in the presence of 100 µM luteolin
[12] = versus luteolin without micronutrients

Chain of MERS 3CLpro (K9N7C7 3248-3553 limits assumed): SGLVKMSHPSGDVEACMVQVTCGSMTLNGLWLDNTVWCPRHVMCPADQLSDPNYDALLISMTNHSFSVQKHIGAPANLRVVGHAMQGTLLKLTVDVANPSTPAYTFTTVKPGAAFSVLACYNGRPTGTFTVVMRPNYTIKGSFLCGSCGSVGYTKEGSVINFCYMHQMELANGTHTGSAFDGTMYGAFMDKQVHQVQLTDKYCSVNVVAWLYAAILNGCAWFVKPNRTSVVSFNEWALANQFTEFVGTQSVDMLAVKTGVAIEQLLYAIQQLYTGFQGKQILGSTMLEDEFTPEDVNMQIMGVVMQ

With [Ca+2].[Cl-].[Cl-] [CaCl2] the IC50 [1, 7] was 1.9 ± 0.2 mM.

O=c1c2ccccc2[se]n1-c1ccccc1 [Ebselen, reference compound] was tested, and the “percentage inhibition of SARS-CoV-2 3CLpro” value [1] was “completely inhibits”.

In the case of [Cl-].[Cl-].[Mg+2] [MgCl2], the IC50 [1, 7] is reported as 24 ± 1.1 mM, the “Tm of the first transition (Tm1) of 3CLpro” value (“Tm of the first transition” below) [2] is reported as 35 ± 0.3 °C and the “Tm of the second transition (Tm2) of 3CLpro” value (from here on “Tm of the second transition”) [2] is reported as 45 ± 0.5 °C. The “fold increase of ΔHcal over free 3CLpro” value [2, 8] was 2 fold and the “calorimetric enthalpy (ΔHcal) of unfolding of 3CLpro” value [2, 9] was 264 ± 15 kJ/mol.

In the case of [Cl][Mn][Cl] [MnCl2], the IC50 [1, 7] is reported as 2.3 ± 0.2 mM, the “Tm of the first transition” value [2, 10] is reported as 35 ± 0.3 °C and the “Tm of the second transition” value [2, 10] is reported as 45 ± 0.5 °C. The “fold increase of ΔHcal over free 3CLpro” value [2, 8] was 3 fold and the “calorimetric enthalpy (ΔHcal) of unfolding of 3CLpro” value [2, 9] was 356 ± 45 kJ/mol.

In the case of O=C1O[C@H]([C@@H](O)CO)C(O)=C1O [Vitamin C, L-ascorbate], the IC50 [1] is reported as 0.8 ± 0.02 mM, the “Tm of the first transition” value [2] is reported as 34 °C and the “Tm of the second transition” value [2] is reported as 45 ± 0.7 °C. For the same compound, the “calorimetric enthalpy (ΔHcal) of unfolding of 3CLpro” value [2, 11] was 1288 ± 136.3 kJ/mol, the “fold increase of ΔHcal over free 3CLpro” value [2, 11] was 10 fold and the “Tm of the late transition (Tm3) of 3CLpro” value ([2]; 0.3 mM vitamin C, no luteolin) was 56 ± 0.2 °C. The “fold increase of ΔHcal over free 3CLpro” value [2, 8] was 8 fold and the “calorimetric enthalpy (ΔHcal) of unfolding of 3CLpro” value [2, 9] was 1034 ± 58 kJ/mol.

In the case of [Cl-].[Cl-].[Zn+2] [ZnCl2], the IC50 [1, 7] is reported as 1.1 ± 0.2 mM, the “decrease of Tm compared with apo-3CLpro” value [2] is reported as “approximately 6 °C” and the “melting point (Tm) of 3CLpro, single transition” value [2] is reported as 41 ± 0.4 °C. For the same compound, the “fold increase of ΔHcal over free 3CLpro” value [2, 8] was 4 fold and the “calorimetric enthalpy (ΔHcal) of unfolding of 3CLpro” value [2, 9] was 453 ± 50 kJ/mol.

With O=c1cc(-c2ccc(O)c(O)c2)oc2cc(O)cc(O)c12 [luteolin, 2-(3,4-dihydroxyphenyl)-5,7-dihydroxy-4H-chromen-4-one] the “fold decrease of the IC50 of luteolin with the combination of vitamin C and magnesium” value [1] was 3 fold, the “fold decrease of the IC50 of luteolin with the combination of zinc and magnesium” value [1] was 2 fold and the IC50 ([1]; 2 µM 3CLpro, 60 µM peptide substrate, absence of micronutrients) was 0.078 mM. For the same compound, the inhibition at 25 µM ([1]; read-out: percentage inhibition of SARS-CoV-2 3CLpro) was 41%, the “fold decrease of the IC50 of luteolin in the presence of magnesium” value [1, 12] was 1.7 fold and 2 fold and the “fold decrease of the IC50 of luteolin in the presence of magnesium, zinc, and vitamin C” value [1, 12] was 10 fold. The “fold increase of the IC50 of luteolin in the presence of calcium” value [1, 12] was 2 fold, the “fold increase of the IC50 of luteolin in the presence of zinc” value [1, 12] was 2 fold and the IC50 [3] was 711 ± 130 µM. The Ki [4] was 93 ± 12 µM, the “fold increase of Ka over Km of the peptide substrate in the absence of inhibitor” value ([4]; in the presence of luteolin) was about 6 fold and the “apparent Michaelis constant (Ka) for the peptide substrate in the presence of luteolin” value ([4]; luteolin 40-400 µM, Km without inhibitor 66 ± 7 µM) was 406 ± 48 µM. For the same compound, the inhibition pattern ([4]; luteolin versus the peptide substrate) was “competitive inhibition”, the IC50 [5] was 90 ± 11 µM and the “melting point (Tm) of 3CLpro, single transition” value ([2]; 25 μM 3CLpro with 100 µM luteolin or 0.3 mM zinc, apo-3CLpro 46.7 ± 0.1) was 46.7 ± 0.1 °C. The “effect of adding luteolin on the thermograms of 3CLpro in the presence of metal ions” value ([2]; 100 µM luteolin with metal ions) was “minimal effect”, the “calorimetric enthalpy (ΔHcal) of unfolding of 3CLpro” value [2, 9] was 101 ± 15 kJ/mol and the IC50 [6] was 388 ± 59 µM.
